The text below walks through data of ChEMBL document CHEMBL3880382, “TRH-like peptide derivatives as inhibitors of the TRH-degrading ectoenzyme” (2010).

Test [1] has as its target T1, Thyrotropin-releasing hormone receptor (Rattus norvegicus, UniProt Q01717).
T1 sequence (Q01717 whole entry): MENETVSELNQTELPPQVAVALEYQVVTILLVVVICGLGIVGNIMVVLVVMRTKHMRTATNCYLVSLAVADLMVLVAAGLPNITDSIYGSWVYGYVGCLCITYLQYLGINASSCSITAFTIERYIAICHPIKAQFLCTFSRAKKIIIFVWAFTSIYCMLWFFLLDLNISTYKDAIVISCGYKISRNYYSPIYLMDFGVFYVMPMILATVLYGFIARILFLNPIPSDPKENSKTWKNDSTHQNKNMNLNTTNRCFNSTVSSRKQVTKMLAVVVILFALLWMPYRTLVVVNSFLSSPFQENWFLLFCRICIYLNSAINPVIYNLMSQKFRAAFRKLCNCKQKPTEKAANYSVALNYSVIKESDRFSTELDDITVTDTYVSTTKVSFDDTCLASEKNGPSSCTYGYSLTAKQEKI
As to the kind of experiment: Displacement of [3H]-3MeHis-TRH from TRH receptor in Sprague-Dawley rat cortical membranes. (In general: Displacement assays read how much labelled ligand stays bound in the presence of the test substance.)

Test [2] deals with T2, Thyrotropin-releasing hormone-degrading ectoenzyme (Homo sapiens, UniProt Q9UKU6).
T2 sequence (Q9UKU6 whole entry): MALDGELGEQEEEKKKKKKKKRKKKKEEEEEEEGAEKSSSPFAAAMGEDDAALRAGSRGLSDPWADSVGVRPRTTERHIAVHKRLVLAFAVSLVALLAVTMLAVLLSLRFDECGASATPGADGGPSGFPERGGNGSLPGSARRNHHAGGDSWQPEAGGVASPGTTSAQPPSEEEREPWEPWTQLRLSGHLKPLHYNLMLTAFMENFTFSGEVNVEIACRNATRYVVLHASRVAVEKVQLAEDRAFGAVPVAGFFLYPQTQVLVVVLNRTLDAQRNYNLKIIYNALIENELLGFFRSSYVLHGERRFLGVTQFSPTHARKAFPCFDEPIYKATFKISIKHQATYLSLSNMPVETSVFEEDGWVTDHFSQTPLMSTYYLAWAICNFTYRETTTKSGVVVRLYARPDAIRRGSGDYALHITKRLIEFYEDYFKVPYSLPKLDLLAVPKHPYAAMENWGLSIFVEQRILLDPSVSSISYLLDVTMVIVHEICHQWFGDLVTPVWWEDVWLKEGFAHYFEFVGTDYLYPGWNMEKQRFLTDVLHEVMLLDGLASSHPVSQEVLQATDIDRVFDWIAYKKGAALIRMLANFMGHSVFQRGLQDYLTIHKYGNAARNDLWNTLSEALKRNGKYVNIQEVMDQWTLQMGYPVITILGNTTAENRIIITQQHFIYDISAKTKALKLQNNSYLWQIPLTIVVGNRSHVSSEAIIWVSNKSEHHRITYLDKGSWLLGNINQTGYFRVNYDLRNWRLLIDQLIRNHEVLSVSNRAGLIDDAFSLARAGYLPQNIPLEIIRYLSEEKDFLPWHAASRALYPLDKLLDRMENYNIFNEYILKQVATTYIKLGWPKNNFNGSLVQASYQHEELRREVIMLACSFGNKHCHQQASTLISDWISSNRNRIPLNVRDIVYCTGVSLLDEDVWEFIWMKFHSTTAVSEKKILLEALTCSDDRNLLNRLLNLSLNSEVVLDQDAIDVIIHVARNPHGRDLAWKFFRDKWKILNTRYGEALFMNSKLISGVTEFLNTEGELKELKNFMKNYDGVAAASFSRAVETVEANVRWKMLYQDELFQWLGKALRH
The test is described as follows: Competitive inhibition of TRH-DE (unknown origin).

In test [3] the test system is Rattus norvegicus. As to the kind of experiment: Behavioral effect in cannulated Wistar rat assessed as number of wet dog shakes at 10 mg/kg, ip measured every 5 mins for 30 secs during 40 mins observation period. Type of test: functional.
Test [4] deals with T3, Thyrotropin releasing hormone degrading enzyme (Sus scrofa) (UniProt A0A287AP33). As to the kind of experiment: Reversible inhibition of pig brain TRH-DE using Glp-His-ProAMC as substrate at 1 uM preincubated for 75 mins by DPP-4-based continuous fluorometric method.
For test [5], the target named is T3, Thyrotropin releasing hormone degrading enzyme (Sus scrofa). As to the kind of experiment: Inhibition of pig brain TRH-DE at 1 uM using Glp-His-ProAMC as substrate by DPP-4-based continuous fluorometric method.
In test [6] the test system is Rattus norvegicus. The test is described as follows: In vivo inhibition of TRH-DE in cannulated Wistar rat assessed as increase in TRH-mediated wet dog shakes at 10 mg/kg, ip measured for last 25 mins of the 40 mins observation period. Type of test: functional, organism-based.
Test [7] has as its system Rattus norvegicus. The test is described as follows: In vivo inhibition of TRH-DE in cannulated Wistar rat assessed as increase in TRH-mediated wet dog shakes at 5 ug in 1 ul, icv followed by TRH addition measured after 30 mins relative to control. Type of test: functional.
For test [8], the system named is Rattus norvegicus. As to the kind of experiment: In vivo inhibition of TRH-DE in cannulated Wistar rat assessed as increase in TRH-mediated chewing at 10 mg/kg, ip measured every 5 mins for 30 secs during 40 mins observation period. Type of test: functional, organism-based.
For test [9], the system named is Rattus norvegicus. As to the kind of experiment: In vivo inhibition of TRH-DE in cannulated Wistar rat assessed as increase in TRH-mediated grooming at 10 mg/kg, ip measured every 5 mins for 30 secs during 40 mins observation period. The format is functional, organism-based.
Test [10] has as its system Rattus norvegicus. As to the kind of experiment: In vivo inhibition of TRH-DE in cannulated Wistar rat assessed as increase in TRH-mediated sniffing at 10 mg/kg, ip measured every 5 mins for 30 secs during 40 mins observation period. The format is functional, organism-based.
Test [11] deals with Thyrotropin releasing hormone degrading enzyme (Sus scrofa, UniProt A0A287AP33). As to the kind of experiment: Inhibition of pig brain TRH-DE using Glp-His-ProAMC as substrate by DPP-4-based continuous fluorometric method.

Structures are written as SMILES. Activity calls are given as the source filed them. No cut-off for these calls is given here. Non-standard residues stand in square brackets, D forms with d. Residues, ends and D or L forms follow the SMILES beside them. *: point of attachment. AMC = Cc1cc(=O)oc2cc(N*)ccc12; pGlu = O=C1CC[C@@H](C(=O)O)N1

T3 sequence (A0A287AP33 as listed by the source): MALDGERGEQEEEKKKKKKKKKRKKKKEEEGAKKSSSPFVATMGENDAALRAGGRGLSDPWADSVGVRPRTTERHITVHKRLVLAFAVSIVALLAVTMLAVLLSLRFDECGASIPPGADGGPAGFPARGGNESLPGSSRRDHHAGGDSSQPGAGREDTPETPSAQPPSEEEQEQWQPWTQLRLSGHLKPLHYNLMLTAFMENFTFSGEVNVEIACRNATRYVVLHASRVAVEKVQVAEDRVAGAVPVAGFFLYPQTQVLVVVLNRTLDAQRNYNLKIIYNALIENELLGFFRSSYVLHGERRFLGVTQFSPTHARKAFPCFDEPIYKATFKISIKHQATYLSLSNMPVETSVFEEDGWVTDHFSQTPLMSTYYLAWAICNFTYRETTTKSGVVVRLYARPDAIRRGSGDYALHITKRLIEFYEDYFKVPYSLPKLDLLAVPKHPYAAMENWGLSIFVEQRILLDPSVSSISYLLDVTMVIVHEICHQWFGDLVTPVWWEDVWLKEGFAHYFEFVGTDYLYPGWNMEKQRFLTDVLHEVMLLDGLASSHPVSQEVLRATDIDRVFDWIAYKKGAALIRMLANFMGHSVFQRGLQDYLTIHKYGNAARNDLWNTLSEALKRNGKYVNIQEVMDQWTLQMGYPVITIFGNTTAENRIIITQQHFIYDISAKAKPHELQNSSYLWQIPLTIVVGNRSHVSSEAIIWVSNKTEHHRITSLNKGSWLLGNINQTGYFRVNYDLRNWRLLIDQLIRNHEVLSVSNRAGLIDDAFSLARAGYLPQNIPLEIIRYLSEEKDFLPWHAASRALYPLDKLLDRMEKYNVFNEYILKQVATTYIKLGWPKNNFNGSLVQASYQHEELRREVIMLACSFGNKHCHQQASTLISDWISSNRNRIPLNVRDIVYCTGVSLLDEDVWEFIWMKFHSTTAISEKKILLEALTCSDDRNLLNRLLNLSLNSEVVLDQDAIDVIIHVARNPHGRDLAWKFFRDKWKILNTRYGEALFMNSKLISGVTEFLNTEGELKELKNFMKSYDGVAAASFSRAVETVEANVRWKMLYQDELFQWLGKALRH
Chain of Thyrotropin releasing hormone degrading enzyme (A0A287AP33 whole entry): as the sequence (A0A287AP33 as listed by the source) above

One may read the Ki as the equilibrium dissociation constant of an inhibitor or competing ligand from its target. As for `O=C(O)C(Cc1ccccc1)N[C@@H](Cc1cn(Cc2ccccc2)cn1)C(=O)Nc1ccc2ccccc2c1` (some centres not stated), the Ki in test [1] was 0.0224 µM; in test [2] it was 8 µM. Moreover, in the test with Rattus norvegicus [3], the Activity is listed as 0.
What is called inhibition is the percentage by which the read-out fell short of the control. On to `Cc1cc(=O)oc2cc(NC(=O)[C@@H]3CCCN3C(=O)[C@H](CC(N)=O)NC(=O)[C@@H]3CCC(=O)N3)ccc12` ([pGlu]-Asn-Pro-{AMC}), for which the inhibition entry (in test [4]; in the test with Rattus norvegicus [6]; in the test on Rattus norvegicus [8]; with Rattus norvegicus [9]; in the test with Rattus norvegicus [10]) was “Active” in each case. Besides, the Ki was 47.9 µM in [1] and 0.41 to 0.97 µM in test [11]. In [5], this compound came in with an inhibition of 50%. Moreover, the “fold change (FC)” value with Rattus norvegicus [7] is recorded as 18.
